Source: patent publication US12590108B2, “Boracic acid compound” (Phaeno Therapeutics Co., Ltd, priority 2020, dated 2026)
Like-named read-outs stand apart in the source and are kept apart here.

Assay: Pharmacokinetics of the compound in rats (intravenous and oral)
Assay type: in vivo
Conditions: male, SD, plasma, rat; for Vd: read-out: Vdss
Protocol: The pharmacokinetic characteristics of the compound in rodents after intravenous injection and oral administration were tested by standard protocol. Specifically, the fasting SD male rats in the experiment were given the candidate compounds by intravenous injection and oral administration. Both oral preparation and intravenous preparation were prepared into 10 mg/mL or 30 mg/mL clear solutions with physiological saline and were administered by intravenous bolus or gavage for 5 minutes. Plasma samples were collected and analyzed by LC-MS/MS method, and pharmacokinetic parameters were calculated.

[1] = 100 mg/kg, intravenous bolus 100 mpk
[2] = 300 mg/kg, intravenous bolus 300 mpk

CCOc1ccc2c(c1C(=O)O)O[B-](O)(O)CO2 [Compound 15]
AUC(0-t) [1]: 549 µg·h/mL | C0 [1]: 580 µg/mL | clearance [1]: 3.02 mL/min/kg | half-life [1]: 3.9 h | Vd [1]: 0.583 L/kg | AUC(0-t) (100 mg/kg, oral 100 mpk): 278 µg·h/mL | Cmax (100 mg/kg, oral 100 mpk): 35.2 µg/mL | Tmax (100 mg/kg, oral 100 mpk): 2 h | half-life (100 mg/kg, oral 100 mpk): 4.99 h | bioavailability (100 mg/kg, oral 100 mpk, AUC0-inf (100 mpk PO)/AUC0-inf (100 mpk IV)): 52.2% | AUC(0-t) [2]: 1160 µg·h/mL | C0 [2]: 1390 µg/mL | clearance [2]: 4.29 mL/min/kg | half-life [2]: 4.56 h | Vd [2]: 0.96 L/kg
